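Tested at 5 concentrations; 48 h exposure; 96-well plates; endpoints linearly interpolated, else capped at highest concentration. TGI marks complete inhibition of growth.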
How the values were obtained:
Assay in all cases: DTP human tumour cell line panel, 48 h
786-0 renal = system: 786-0 renal
A498 renal = system: A498 renal
A549 NSCLC = system: A549 NSCLC
ACHN renal = system: ACHN renal
BT-549 breast = system: BT-549 breast
CAKI-1 renal = system: CAKI-1 renal
CCRF-CEM leukemia = system: CCRF-CEM leukemia
COLO 205 colon = system: COLO 205 colon
DU-145 prostate = system: DU-145 prostate
EKVX NSCLC = system: EKVX NSCLC
HCC-2998 colon = system: HCC-2998 colon
HCT-116 colon = system: HCT-116 colon
HCT-15 colon = system: HCT-15 colon
HL-60(TB) leukemia = system: HL-60(TB) leukemia
HOP-62 NSCLC = system: HOP-62 NSCLC
HOP-92 NSCLC = system: HOP-92 NSCLC
HS 578T breast = system: HS 578T breast
HT29 colon = system: HT29 colon
IGROV1 ovarian = system: IGROV1 ovarian
K-562 leukemia = system: K-562 leukemia
KM12 colon = system: KM12 colon
LOX IMVI melanoma = system: LOX IMVI melanoma
M14 melanoma = system: M14 melanoma
MALME-3M melanoma = system: MALME-3M melanoma
MCF7 breast = system: MCF7 breast
MDA-MB-231 breast = system: MDA-MB-231 breast
MDA-MB-435 = system: MDA-MB-435
MDA-N = system: MDA-N
MOLT-4 leukemia = system: MOLT-4 leukemia
NCI-H226 lung = system: NCI-H226 lung
NCI-H23 lung = system: NCI-H23 lung
NCI-H460 lung = system: NCI-H460 lung
NCI-H522 lung = system: NCI-H522 lung
NCI/ADR-RES ovarian = system: NCI/ADR-RES ovarian
OVCAR-3 ovarian = system: OVCAR-3 ovarian
OVCAR-4 ovarian = system: OVCAR-4 ovarian
OVCAR-5 ovarian = system: OVCAR-5 ovarian
OVCAR-8 ovarian = system: OVCAR-8 ovarian
PC-3 prostate = system: PC-3 prostate
RPMI-8226 leukemia = system: RPMI-8226 leukemia
RXF 393 renal = system: RXF 393 renal
SF-268 CNS = system: SF-268 CNS
SF-295 CNS = system: SF-295 CNS
SF-539 CNS = system: SF-539 CNS
SK-MEL-2 melanoma = system: SK-MEL-2 melanoma
SK-MEL-28 melanoma = system: SK-MEL-28 melanoma
SK-MEL-5 melanoma = system: SK-MEL-5 melanoma
SK-OV-3 ovarian = system: SK-OV-3 ovarian
SN12C renal = system: SN12C renal
SNB-19 CNS = system: SNB-19 CNS
SNB-75 CNS = system: SNB-75 CNS
SW-620 colon = system: SW-620 colon
T-47D breast = system: T-47D breast
TK-10 renal = system: TK-10 renal
U251 CNS = system: U251 CNS
UACC-257 melanoma = system: UACC-257 melanoma
UACC-62 melanoma = system: UACC-62 melanoma
UO-31 renal = system: UO-31 renal

With `CCN(CC)CCSc1c(C(C)=O)c(=O)n(-c2ccccc2)c(=S)n1-c1ccccc1` the TGI (786-0 renal) was 3.38 µM, the TGI (A498 renal) was 40.6 µM and the TGI (A549 NSCLC) was 30 µM. The TGI (ACHN renal) was 10.1 µM, the TGI (BT-549 breast) was 30.8 µM and the TGI (CAKI-1 renal) was 24 µM. The TGI (CCRF-CEM leukemia) was over 100 µM, the TGI (COLO 205 colon) was 3.92 µM and the TGI (DU-145 prostate) was 10 µM. The TGI (EKVX NSCLC) was 32.7 µM, the TGI (HCC-2998 colon) was 24.5 µM and the TGI (HCT-116 colon) was 6.09 µM. For the same compound, the TGI (HCT-15 colon) was 8.86 µM, the TGI (HL-60(TB) leukemia) was 8.71 µM and the TGI (HOP-62 NSCLC) was 45.3 µM. The TGI (HOP-92 NSCLC) was 5.8 µM, the TGI (HS 578T breast) was over 93.4 µM and the TGI (HT29 colon) was 37.7 µM. It also gave a TGI (IGROV1 ovarian) of 27.2 µM, a TGI (K-562 leukemia) of over 43.7 µM and a TGI (KM12 colon) of 35 µM. The TGI (LOX IMVI melanoma) was 9.04 µM, the TGI (M14 melanoma) was 4.12 µM and the TGI (MALME-3M melanoma) was 20.7 µM. For the same compound, the TGI (MCF7 breast) was 8.45 µM, the TGI (MDA-MB-231 breast) was 26.9 µM and the TGI (MDA-MB-435) was 21.2 µM. For the same compound, the TGI (MDA-N) was 20.9 µM, the TGI (MOLT-4 leukemia) was 19.3 µM and the TGI (NCI-H226 lung) was over 60.3 µM. The TGI (NCI-H23 lung) was 33.2 µM, the TGI (NCI-H460 lung) was 50.1 µM and the TGI (NCI-H522 lung) was 5.54 µM. For the same compound, the TGI (NCI/ADR-RES ovarian) was 63.4 µM, the TGI (OVCAR-3 ovarian) was 8.79 µM and the TGI (OVCAR-4 ovarian) was 29 µM. For the same compound, the TGI (OVCAR-5 ovarian) was 53.2 µM, the TGI (OVCAR-8 ovarian) was 10.9 µM and the TGI (PC-3 prostate) was 12 µM. It also gave a TGI (RPMI-8226 leukemia) of 8.52 µM, a TGI (RXF 393 renal) of 3.94 µM and a TGI (SF-268 CNS) of 35.8 µM. It also gave a TGI (SF-295 CNS) of over 100 µM, a TGI (SF-539 CNS) of 6.01 µM and a TGI (SK-MEL-2 melanoma) of 31.6 µM. The TGI (SK-MEL-28 melanoma) was 33.3 µM, the TGI (SK-MEL-5 melanoma) was over 45.1 µM and the TGI (SK-OV-3 ovarian) was over 100 µM. For the same compound, the TGI (SN12C renal) was 31.6 µM, the TGI (SNB-19 CNS) was 55.8 µM and the TGI (SNB-75 CNS) was over 85.1 µM. It also gave a TGI (SW-620 colon) of 13.4 µM, a TGI (T-47D breast) of 8.36 µM and a TGI (TK-10 renal) of 17.2 µM. It also gave a TGI (U251 CNS) of 33.1 µM, a TGI (UACC-257 melanoma) of 23.4 µM and a TGI (UACC-62 melanoma) of 27.7 µM. The TGI (UO-31 renal) was 3.86 µM.
`CC1(C)[C@H]2Cc3cc4nc5ccccn5c4cc3[C@@H]1C2` showed a TGI (786-0 renal) of 32.7 µM, a TGI (A549 NSCLC) of 40.7 µM and a TGI (ACHN renal) of 34.2 µM. The TGI (BT-549 breast) was 41.5 µM, the TGI (CAKI-1 renal) was 30 µM and the TGI (CCRF-CEM leukemia) was 75.1 µM. For the same compound, the TGI (COLO 205 colon) was 34.7 µM, the TGI (DU-145 prostate) was 41 µM and the TGI (EKVX NSCLC) was 32.7 µM. The TGI (HCC-2998 colon) was 37 µM, the TGI (HCT-116 colon) was 33 µM and the TGI (HCT-15 colon) was 35 µM. The TGI (HL-60(TB) leukemia) was 57.2 µM, the TGI (HOP-62 NSCLC) was 39.7 µM and the TGI (HOP-92 NSCLC) was 29.3 µM. For the same compound, the TGI (HS 578T breast) was 37.7 µM, the TGI (HT29 colon) was 28.3 µM and the TGI (IGROV1 ovarian) was 43 µM. For the same compound, the TGI (K-562 leukemia) was over 100 µM, the TGI (KM12 colon) was 36.7 µM and the TGI (LOX IMVI melanoma) was 39.4 µM. It also gave a TGI (M14 melanoma) of 38.2 µM, a TGI (MALME-3M melanoma) of 25.7 µM and a TGI (MCF7 breast) of 17.8 µM. For the same compound, the TGI (MDA-MB-231 breast) was 27.1 µM, the TGI (MDA-MB-435) was 36.7 µM and the TGI (MDA-N) was 33.4 µM. It also gave a TGI (MOLT-4 leukemia) of 54.8 µM, a TGI (NCI-H226 lung) of 35.4 µM and a TGI (NCI-H23 lung) of 32.4 µM. The TGI (NCI-H460 lung) was 38.8 µM, the TGI (NCI-H522 lung) was 21.9 µM and the TGI (NCI/ADR-RES ovarian) was 36.7 µM. The TGI (OVCAR-3 ovarian) was 35.6 µM, the TGI (OVCAR-4 ovarian) was 26 µM and the TGI (OVCAR-5 ovarian) was 30.8 µM. It also gave a TGI (OVCAR-8 ovarian) of 30.5 µM, a TGI (PC-3 prostate) of 41.5 µM and a TGI (RPMI-8226 leukemia) of 69.3 µM. The TGI (SF-268 CNS) was 34.5 µM, the TGI (SF-295 CNS) was 30.8 µM and the TGI (SF-539 CNS) was 33.6 µM. For the same compound, the TGI (SK-MEL-2 melanoma) was 32 µM, the TGI (SK-MEL-28 melanoma) was 36.3 µM and the TGI (SK-MEL-5 melanoma) was 34.3 µM. It also gave a TGI (SK-OV-3 ovarian) of 36.4 µM, a TGI (SN12C renal) of 35.8 µM and a TGI (SNB-19 CNS) of 31.8 µM. It also gave a TGI (SNB-75 CNS) of 31.6 µM, a TGI (SW-620 colon) of 52.5 µM and a TGI (T-47D breast) of 53.7 µM. It also gave a TGI (TK-10 renal) of 33 µM, a TGI (U251 CNS) of 34.2 µM and a TGI (UACC-257 melanoma) of 34.2 µM. It also gave a TGI (UACC-62 melanoma) of 29.9 µM and a TGI (UO-31 renal) of 26.9 µM.
